Measured values published in patent US4963553A, “4-[(substituted) alkylcarbonyl]-4,5-dihydro- and -4,5,6,7-tetrahydro-7-[(substituted)phenyl]pyrazolo[1,5-a]pyrimidines” (American Cyanamid Co., priority 1988, dated 1990).
Where a name gives a salt, the structure may show the parent alone.

What follows are compounds tested on mice (hypoxic environment) (assay: Hypoxic survival test). Conditions: 100 mg/kg, intraperitoneal, 10% oxygen, 5 minutes.
Assay type: in vivo, mouse (Royal Hart)
Protocol: The hypoxic survival test is a useful in vivo test for measuring the effectiveness of central nervous system-acting drugs in enhancing survival in an hypoxic environment relative to the known parasympathomimetic agent physostigmine.
Drugs are tested by intraperitoneal injection of groups of mice 30 minutes prior to placing them in an hypoxic environment and measuring survival. The rationale of this test is that drugs which enhance survival under hypoxic conditions without concomitant depression or sedative side effects, do so by enhancing brain metabolism, i.e., by improving energy supply relative to demand and so preserving normal brain function under conditions of reduced energy metabolism. Considering the dependence of the brain on a constant supply of energy, drugs which have this property may have many far-reaching therapeutic indications, including aiding recovery from stroke and closed head injury and reducing the deleterious effects of age-related central nervous system deficits.
In the hypoxic survival test, groups of 20 Royal Hart mice (6 weeks of age) were injected intraperitoneally with a test compound in saline at various doses ranging from 1 to 200 mg/kg, 30 minutes prior to placing them in an hypoxic mixture (10% oxygen, 90% […]) and measuring survival after 5 minutes.
A control group of 20 mice was injected intraperitoneally with saline (0.01 ml/g of body weight) and processed as described above.
Another group of 20 mice was injected intraperitoneally with 0.125 mg/kg of physostigmine in saline and processed as described above.

| Structure (SMILES) | % Survivors |
| --- | --- |
| N#Cc1cnn2c1N(C(=O)CN1CCN(CCc3ccccc3)CC1)CC=C2c1cccc(C(F)(F)F)c1 [4,5-Dihydro-4-[[4-(2-phenylethyl)-1-piperazinyl]acetyl]-7-[3-trifluoromethyl)phenyl]pyrazolo[1,5-a]pyrimidine-3-carbonitrile] | 90% |
| CC1C=C(c2cccc(C(F)(F)F)c2)n2ncc(C#N)c2N1C(=O)CN1CCN(Cc2ccccc2)CC1 (centres unmarked) [Example 72, 4,5-Dihydro-5-methyl-4-[[4-(phenylmethyl)-1-piperazinyl]acetyl]-7-[3-(trifluoromethyl)phenyl]pyrazolo[1,5-a]pyrimidine-3-carbonitrile] | 25% |
| N#Cc1cnn2c1N(C(=O)CN1CCN(Cc3cccc(C(F)(F)F)c3)CC1)CC=C2c1cccc(C(F)(F)F)c1 [Example 128, 4,5-Dihydro-4-[[4-[(3-trifluoromethylphenyl)methyl]-1-piperazinyl]acetyl]-7-[3-(trifluoromethyl)phenyl]pyrazolo[1,5-a]pyrimidine-3-carbonitrile] | 40% |
| Cl.Cl.N#Cc1cnn2c1N(C(=O)CN1CCN(CCc3ccccc3)CC1)CC=C2c1cccc(C(F)(F)F)c1 [Example 132, 4,5-Dihydro-4-[[4-(2-phenylethyl)-1-piperazinyl)acetyl]-7-[3-(trifluoromethyl)phenyl]pyrazolo[1,5-a]pyrimidine-3-carbonitrile, dihydrochloride] | 60% |

Same assay, conditions: Mus musculus, ip, 5 min, 10 mg/kg, intraperitoneal, 10% oxygen, 5 minutes; read-out: % Survivors

| Structure (SMILES) | responders at 10 mg/kg |
| --- | --- |
| N#Cc1cnn2c1N(C(=O)CN1CCN(Cc3c(Cl)cccc3Cl)CC1)CCC2c1cccc(C(F)(F)F)c1 (centres unmarked) [Example 54, 4-[[4-[(2,6-Dichlorophenyl)methyl]-1-piperazinyl]acetyl]-4,5,6,7-tetrahydro-7-[3-(trifluoromethyl)phenyl]pyrazolo[1,5-a]pyrimidine-3-carbonitrile] | 25% |
| N#Cc1cnn2c1N(C(=O)CN1CCN(Cc3ccccc3)CC1)CC=C2c1ccc(Cl)cc1 [Example 58, 7-(4-Chlorophenyl)-4,5-dihydro-4-[[4-(phenylmethyl)-1-piperazinyl]acetyl]pyrazolo[1,5-a]pyrimidine-3-carbonitrile] | 50% |
| N#Cc1cnn2c1N(C(=O)CN1CCN(Cc3ccccc3C(F)(F)F)CC1)CC=C2c1ccc(Cl)cc1 [Example 59, 7-(4-Chlorophenyl)-4,5-dihydro-4-[[4-[[2-(trifluoromethyl)phenyl]methyl]-1-piperazinyl]acetyl]pyrazolo[1,5-a]pyrimidine-3-carbonitrile] | 55% |
| NC(=O)c1cnn2c1N(C(=O)CN1CCN(Cc3ccccc3)CC1)CC=C2c1cccc(C(F)(F)F)c1 [Example 75, 4,5-Dihydro-4-[[4-(phenylmethyl)-1-piperazinyl]acetyl]-7-[3-(trifluoromethyl)phenyl]pyrazolo[1,5-a]pyrimidine-3-carboxamide] | 15% |
| N#Cc1cnn2c1N(C(=O)CN1CCN(C3CCC3)CC1)CC=C2c1cccc(C(F)(F)F)c1 [Example 91, 4-[(4-Cyclobutyl-1-piperazinyl)acetyl]-4,5-dihydro-7-[3-(trifluoromethyl)phenyl]pyrazolo[1,5-a]pyrimidine-3-carbonitrile, dihydrochloride] | 55% |

Same assay, conditions: Mus musculus, ip, 5 min, 50 mg/kg, intraperitoneal, 10% oxygen, 5 minutes; read-out: % Survivors

| Structure (SMILES) | responders at 50 mg/kg |
| --- | --- |
| CC1=C(c2cccc(Cl)c2)n2ncc(C#N)c2N(C(=O)CN2CCN(Cc3cccc(Cl)c3)CC2)C1 [Example 131, 7-(3-Chloroohenyl)-4-[[4-[(3-Chlorophenyl)methyl-1-piperazinyl]acetyl]4,5-dihydro-6-methylpyrazolo[1,5-a]pyrimidine-3-carbonitrile, dihydrochloride] | 73% |

Same assay, conditions: Mus musculus, ip, 5 min, 100 mg/kg, intraperitoneal, 10% oxygen, 5 minutes; read-out: % Survivors

| Structure (SMILES) | responders at 100 mg/kg |
| --- | --- |
| N#Cc1cnn2c1N(C(=O)CN1CCN(c3ccccc3)CC1)CC=C2c1cc(Cl)ccc1Cl [7-(2,5-Dichlorophenyl)-4,5-dihydro-4-[(4-phenyl-1-piperazinyl)acetyl]pyrazolo[1,5-a]pyrimidine-3-carbonitrile] | 70% |
| CC1=C(c2cccc(Cl)c2)n2ncc(C#N)c2N(C(=O)CN2CCN(Cc3cccc(C(F)(F)F)c3)CC2)C1 [7-(3-Chlorophenyl)-4,5-dihydro-6-methyl-4-[[4-[[3-(trifluoromethyl)phenyl]methyl]-1-piperazinyl]acetyl]pyrazolo[1,5-a]pyrimidine-3-carbonitrile, sesquihydrochloride] | 35% |
| N#Cc1cnn2c1N(C(=O)CN1CCN(Cc3cccc(Cl)c3)CC1)CCC2c1cccc(C(F)(F)F)c1 (centres unmarked) [Example 53, 4-[[4-[(3-Chlorophenyl)methyl]-1-piperazinyl]acetyl]-4,5,6,7-tetrahydro-7-[3-(trifluoromethyl)phenyl]pyrazolo[1,5-a]pyrimidine-3-carbonitrile] | 15% |
| N#Cc1cnn2c1N(C(=O)CN1CCN(Cc3ccccc3)CC1)CC=C2c1ccc(Cl)cc1 [Example 58, 7-(4-Chlorophenyl)-4,5-dihydro-4-[[4-(phenylmethyl)-1-piperazinyl]acetyl]pyrazolo[1,5-a]pyrimidine-3-carbonitrile] | 82.5% |
| N#Cc1cnn2c1N(C(=O)CN1CCN(Cc3ccccc3C(F)(F)F)CC1)CC=C2c1ccc(Cl)cc1 [Example 59, 7-(4-Chlorophenyl)-4,5-dihydro-4-[[4-[[2-(trifluoromethyl)phenyl]methyl]-1-piperazinyl]acetyl]pyrazolo[1,5-a]pyrimidine-3-carbonitrile] | 90% |
| N#Cc1cnn2c1N(C(=O)CN1CCN(Cc3ccccc3)CC1)CC=C2c1cc(Cl)ccc1Cl [Example 62, 7-(2,5-Dichlorophenyl)-4,5-dihydro-4-[[4-(phenylmethyl)-1-piperazinyl]acetyl]pyrazolo[1,5-a]pyrimidine-3-carbonitrile] | 50% |
| Cc1ccc(C)c(N2CCN(CC(=O)N3CC=C(c4cc(Cl)ccc4Cl)n4ncc(C#N)c43)CC2)c1 [Example 66, 7-(2,5-Dichlorophenyl)-4-[[4-(2,5-dimethylphenyl)-1-piperazinyl]acetyl]-4,5-dihydropyrazolo[1,5-a]pyrimidine-3-carbonitrile] | 45% |
| N#Cc1cnn2c1N(C(=O)CN1CCN(C(=O)c3ccccc3)CC1)CC=C2c1cccc(C(F)(F)F)c1 [Example 68, 4-[[4-Benzoyl-1-piperazinyl)acetyl]-4,5-dihydro-7-[3-(trifluoromethyl)phenyl]pyrazolo[1,5-a]pyrimidine-3-carbonitrile] | 95% |
| O=C(CN1CCN(Cc2ccccc2)CC1)N1CC=C(c2cccc(C(F)(F)F)c2)n2ncc(Br)c21 [Example 76, 3-Bromo-4,5-dihydro-4-[[4-(phenylmethyl)-1-piperazinyl]acetyl]-7-[3-(trifluoromethyl)phenyl]pyrazolo[1,5-a]pyrimidine] | 35% |
| N#Cc1cnn2c1N(C(=O)CN1CCN(C(c3ccc(F)cc3)c3ccc(F)cc3)CC1)CC=C2c1cccc(C(F)(F)F)c1 [Example 88, 4-[[4-[Bis(4-Fluorophenyl)methyl]-1-piperazinyl]acetyl]-4,5-dihydro-7-[3-(trifluoromethyl)phenyl]pyrazolo[1,5-a]pyrimidine-3-carbonitrile, dihydrochloride] | 55% |
| CC1C=C(c2cccc(C(F)(F)F)c2)n2ncc(C#N)c2N1C(=O)CN1CCN(Cc2ccccc2)CC1 (centres unmarked) [Example 95, 4,5-Dihydro-5-methyl-4-[[4-(phenylmethyl)-1-piperazinyl]acetyl]-7-[3-(trifluoromethyl)phenyl]pyrazolo[1,5-a]pyrimidine-3-carbonitrile, dihydrochloride] | 43% |
| N#Cc1cnn2c1N(C(=O)CN1CCN(C(=O)Nc3ccc(Cl)c(C(F)(F)F)c3)CC1)CC=C2c1cccc(C(F)(F)F)c1 [Example 106, N-[4-Chloro-3-(trifluoromethyl)phenyl]-4-[2-[3-cyano-7-[3-(trifluoromethyl)phenyl)pyrazolo[1.5-a]pyrimidin-4(5H)-yl]-2-oxoethyl]-1-piperazinecarboxamide] | 15% |
| N#Cc1cnn2c1N(C(=O)CN1CCN(C(=O)Nc3ccc(F)cc3F)CC1)CC=C2c1cccc(C(F)(F)F)c1 [Example 107] | 20% |
| CC1=C(c2cccc(C(F)(F)F)c2)n2ncc(C#N)c2N(C(=O)CN2CCN(Cc3ccccc3)CC2)C1 [Example 111, 4,5-Dihydro-6-methyl-4-[[4-(phenylmethyl)-1-piperazinyl]acetyl]-7-[3-(trifluoromethyl)phenyl]pyrazolo[1.5-a]pyrimidine-3-carbonitrile. dihydrochloride] | 73% |
| CC1=C(c2cccc(Cl)c2)n2ncc(C#N)c2N(C(=O)CN2CCN(Cc3ccccc3)CC2)C1 [Example 113, 7-(3-Chlorophenyl)-4.5-dihydro-6-methyl-4-[[4-(phenylmethyl)piperazinyl]acetyl]pyrazolo[1,5-a]pyrimidine-3-carbonitrile, dihydrochloride] | 30% |
| CC1=C(c2ccc(Cl)cc2)n2ncc(C#N)c2N(C(=O)CN2CCN(Cc3ccccc3)CC2)C1 [Example 114, 7-(4-Chlorophenyl)-4.5-dihydro-6-methyl-4[[4-(phenylmethyl)piperazinyllacetyllpyrazolo[1,5-a]pyrimidine-3-carbonitrile, dihydrochloride] | 25% |
| CC1=C(c2cccc(Cl)c2)n2ncc(C#N)c2N(C(=O)CN2CCN(Cc3cccc(Cl)c3)CC2)C1 [Example 131, 7-(3-Chloroohenyl)-4-[[4-[(3-Chlorophenyl)methyl-1-piperazinyl]acetyl]4,5-dihydro-6-methylpyrazolo[1,5-a]pyrimidine-3-carbonitrile, dihydrochloride] | 77% |

Same assay, conditions: Mus musculus, ip, 5 min, 200 mg/kg, intraperitoneal, 10% oxygen, 5 minutes; read-out: % Survivors

| Structure (SMILES) | responders at 200 mg/kg |
| --- | --- |
| Cc1ccc(C)c(N2CCN(CC(=O)N3CC=C(c4cc(Cl)ccc4Cl)n4ncc(C#N)c43)CC2)c1 [Example 66, 7-(2,5-Dichlorophenyl)-4-[[4-(2,5-dimethylphenyl)-1-piperazinyl]acetyl]-4,5-dihydropyrazolo[1,5-a]pyrimidine-3-carbonitrile] | 80% |
| CC1=C(c2cccc(Cl)c2)n2ncc(C#N)c2N(C(=O)CN2CCN(Cc3cccc(C(F)(F)F)c3)CC2)C1 [Example 127, 7-(3-Chlorophenyl)-4,5-dihydro-6-methyl-4-[[4-[[3-(trifluoromethyl)phenyl]methyl]-1-piperazinyl]acetyl]pyrazolo[1,5-a]pyrimidine-3-carbonitrile] | 73% |
